The target of the experiment is T1, RXFP1 (Homo sapiens, UniProt Q9HBX9).
T1 construct: OVCAR5 cells expressing endogenous RXFP1; endogenous in cells; host or cells: OVCAR5 cells
T1 sequence (Q9HBX9 1-757): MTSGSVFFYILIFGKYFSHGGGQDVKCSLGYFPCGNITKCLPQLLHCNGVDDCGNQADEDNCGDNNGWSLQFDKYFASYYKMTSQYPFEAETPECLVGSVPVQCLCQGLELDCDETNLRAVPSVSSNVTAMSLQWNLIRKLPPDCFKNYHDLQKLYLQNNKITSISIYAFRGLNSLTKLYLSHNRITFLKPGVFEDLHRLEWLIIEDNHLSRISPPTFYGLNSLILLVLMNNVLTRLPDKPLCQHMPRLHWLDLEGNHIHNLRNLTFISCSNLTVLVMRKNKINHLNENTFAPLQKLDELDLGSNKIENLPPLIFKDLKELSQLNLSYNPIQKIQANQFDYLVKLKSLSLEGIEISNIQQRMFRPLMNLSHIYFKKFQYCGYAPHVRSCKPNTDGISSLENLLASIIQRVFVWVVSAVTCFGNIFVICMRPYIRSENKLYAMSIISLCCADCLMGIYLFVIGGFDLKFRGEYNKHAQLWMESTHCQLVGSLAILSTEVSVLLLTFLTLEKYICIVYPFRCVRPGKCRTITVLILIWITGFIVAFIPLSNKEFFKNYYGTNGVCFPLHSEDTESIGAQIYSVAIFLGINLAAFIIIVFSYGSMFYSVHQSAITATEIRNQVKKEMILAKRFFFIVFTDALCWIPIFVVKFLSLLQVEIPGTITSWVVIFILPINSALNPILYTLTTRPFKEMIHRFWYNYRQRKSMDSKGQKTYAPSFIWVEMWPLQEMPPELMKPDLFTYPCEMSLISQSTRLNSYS
Nature of the experiment: OVCAR5 cAMP assay (HTRF), RXFP1 agonist activity. Type of experiment: cell-based. The following applies: for EC50: OVCAR5 cells, cAMP HTRF, read-out: EC50 (nM), OVCAR 5 cells (cAMP); for Emax: OVCAR-5, maximal cAMP relative to H2-relaxin maximum (100%), read-out: EMax, OVCAR 5 cells (cAMP). The source says: OVCAR5 cells expressing endogenous RXFP1 were used to test RXP1 agonist properties of peptides of the invention, and in particular of the peptides of sequence SEQ ID NO: 1-193.
Since RXFP1 is a Gs coupled GPCR, cAMP was used as readout of RXFP1 activation.
Isobutyl Methyl Xanthine (IBMX) was used to inhibit phosphodiesterase activity facilitating cAMP measurements. HTRF (Homogenous Time Resolved Fluorescence) technology was used to detect cAMP due to its great sensitivity.
In summary, OVCAR5 were grown in regular medium (RPMI) containing 10% fetal calf serum (FCS) and 1% antibiotics (penicillin/streptomycin).
Before the experiments, cells were detached with accutase and incubated for 40 minutes at 37° C. with 1 mM (3-isobutyl-1-methylxanthine) IBMX.
Cells were then distributed in 384 black well plates containing increasing concentrations of the different peptides in a fix volume of medium (without FCS).
After an incubation of 30 min at 37° C. in an humid incubator in 5% CO2, the reaction was stopped by adding a fixed volume of a solution containing a lysis buffer and cAMP-D2 (cAMP labeled with the dye d2) and the anti cAMP antibody linked to Europium and used for cAMP detection.
Readout of the experiment were performed on a fluorimeter allowing HTRF measurement. Activation curves were generated by plotting the intracellular value of cAMP versus log 10 of the compound concentration.
The 50% activation concentration (EC50) was calculated by nonlinear regression using the sigmoidal dose-response (variable slope) equation with Prism 5 software.
Emax % is determined as the maximal intracellular value of cAMP for test compound (upper limit of cAMP vs concentration curve) divided by the maximal intracellular value of cAMP for H2-relaxin determined in the same test occasion multiplied by 100. Emax %=100×[cAMPtest cpd]/[cAMPH2-RlX]

Results on six molecules are retold here after patent US10988523B2, “Modified lipidated Relaxin B chain peptides and their therapeutic use” (Sanofi, priority 2018, dated 2021).

The EC50 is the concentration needed to bring the measured effect to its halfway point. By Emax is commonly meant the greatest response seen or fitted, relative to the assay's reference.

*1 amine or outer side, *2 acyl side, *3 side chain or, on linkers, in order; H or OH if unused. Where a SMILES comes first, the peptide text is derived from it. Side-chain parts run from the residue outwards. [ ]: non-standard residue; d: D form. The star is where a group is joined. X16 = CCCCCCCCCCCCCCCCCC(=O)N[C@@H](CCC(=O)N[C@@H](CCC(=O)N[C@@H](CCC(=O)NCCCOCCOCCOCCCNC(=O)COCC(=O)*)C(=O)O)C(=O)O)C(=O)O; Lys(Me3) = C[N+](C)(C)CCCC[C@H](N)C(=O)O; γGlu = O=C(O)[C@H](CCC(=O)[*:2])N[*:1]; Arg(Me) = CNC(=N)NCCC[C@H](N)C(=O)O; Stearoyl = CCCCCCCCCCCCCCCCCC(=O)*; Palmitoyl = CCCCCCCCCCCCCCCC(=O)*; αMeK = C[C@](N)(CCCCN)C(=O)O; Nle = CCCC[C@H](N)C(=O)O; AEEA = NCCOCCOCC(=O)O; Aib = CC(C)(N)C(=O)O

Turning to `CCCCCCCCCCCCCCCCCC(=O)N[C@@H](CCC(=O)N[C@@H](CCC(=O)N[C@@H](CCC(=O)N[C@@H](CCC(=O)N[C@@H](CCC(=O)NCCOCCOCC(=O)NCCOCCOCC(=O)NCCOCCOCC(=O)NCCCC[C@H](NC(=O)[C@H](CCCCN)NC(=O)[C@H](CCCCN)NC(=O)[C@H](CCCNC(=N)N)NC(=O)C(C)(C)NC(=O)[C@H](CO)NC(=O)[C@H](Cc1c[nH]c2ccccc12)NC(=O)[C@@H](NC(=O)[C@H](CO)NC(=O)[C@H](CCC(N)=O)NC(=O)CNC(=O)[C@H](CCC(=O)O)NC(=O)C(C)(C)NC(=O)C(C)(C)NC(=O)[C@@H](NC(=O)[C@H](CCCCNC(C)=O)NC(=O)[C@H](C)NC(=O)[C@H](CCCNC(=N)N)NC(=O)[C@@H](NC(=O)[C@H](CCCCN)NC(=O)[C@H](CCC(=O)O)NC(=O)[C@H](CCCNC(=N)N)NC(=O)CNC(=O)[C@H](CCC(=O)O)NC(=O)[C@H](CC(C)C)NC(C)=O)C(C)C)[C@@H](C)CC)[C@@H](C)O)C(N)=O)C(=O)O)C(=O)O)C(=O)O)C(=O)O)C(=O)O` [compound 111] (Ac-LEGREKVRAK(Ac)I[Aib][Aib]EGQSTWS[Aib]RKKK([AEEA-AEEA-AEEA-γGlu-γGlu-γGlu-γGlu-γGlu-Stearoyl])-NH2), the half-maximal effective concentration (EC50) worked out at 0.21 nM and the maximum response (Emax) was 92%.

For `CCCCCCCCCCCCCCCCCC(=O)N[C@@H](CCC(=O)N[C@@H](CCC(=O)N[C@@H](CCC(=O)NCCCOCCOCCOCCCNC(=O)COCC(=O)NCCCC[C@H](NC(=O)[C@H](CCCCNC(C)=O)NC(=O)[C@H](CCCCN)NC(=O)[C@H](CCCNC(=N)N)NC(=O)C(C)(C)NC(=O)[C@H](CO)NC(=O)[C@H](Cc1c[nH]c2ccccc12)NC(=O)[C@@H](NC(=O)[C@H](CO)NC(=O)[C@H](CCCC)NC(=O)CNC(=O)[C@H](CCC(=O)O)NC(=O)C(C)(C)NC(=O)C(C)(C)NC(=O)[C@@H](NC(=O)[C@H](CCCCNC(C)=O)NC(=O)[C@H](C)NC(=O)[C@H](CCCNC(=N)N)NC(=O)[C@@H](NC(=O)[C@H](CCCCN)NC(=O)[C@H](CCC(=O)O)NC(=O)[C@H](CCCNC(=N)N)NC(=O)CNC(=O)[C@H](CCC(=O)O)NC(=O)[C@H](CC(C)C)NC(C)=O)C(C)C)[C@@H](C)CC)[C@@H](C)O)C(N)=O)C(=O)O)C(=O)O)C(=O)O` [compound 94] (Ac-LEGREKVRAK(Ac)I[Aib][Aib]EG[Nle]STWS[Aib]RKK(Ac)K(X16)-NH2), the Emax came out at 90%. On the same count and under the same terms, in the case of `CCCCCCCCCCCCCCCC(=O)NCCOCCOCC(=O)NCCCC[C@H](NC(=O)[C@H](CCCCN)NC(=O)[C@H](CCCNC(=N)N)NC(=O)C(C)(C)NC(=O)[C@H](CO)NC(=O)[C@H](Cc1c[nH]c2ccccc12)NC(=O)[C@@H](NC(=O)[C@H](CO)NC(=O)[C@H](CCCC)NC(=O)CNC(=O)[C@H](CCC(=O)O)NC(=O)C(C)(C)NC(=O)C(C)(C)NC(=O)[C@@H](NC(=O)[C@H](CCC(N)=O)NC(=O)[C@H](C)NC(=O)[C@H](CCCNC(=N)N)NC(=O)[C@@H](NC(=O)[C@H](CCCCN)NC(=O)[C@H](CCC(=O)O)NC(=O)[C@H](CCCNC(=N)N)NC(=O)CNC(=O)[C@H](CCC(=O)O)NC(=O)[C@H](CC(C)C)NC(C)=O)C(C)C)[C@@H](C)CC)[C@@H](C)O)C(N)=O` [compound 50] (Ac-LEGREKVRAQI[Aib][Aib]EG[Nle]STWS[Aib]RKK([AEEA-Palmitoyl])-NH2) it was 95%; in that of `CCCCCCCCCCCCCCCC(=O)N[C@@H](CCC(=O)N[C@@H](CCC(=O)NCCOCCOCC(=O)NCCCC[C@H](NC(=O)[C@H](CCCCN)NC(=O)[C@H](CCCNC(=N)N)NC(=O)C(C)(C)NC(=O)[C@H](CO)NC(=O)[C@H](Cc1c[nH]c2ccccc12)NC(=O)[C@@H](NC(=O)[C@H](CO)NC(=O)[C@H](CCCC)NC(=O)CNC(=O)[C@H](CCC(=O)O)NC(=O)C(C)(C)NC(=O)C(C)(C)NC(=O)[C@@H](NC(=O)[C@H](C)NC(=O)[C@H](C)NC(=O)[C@H](CCCNC(=N)N)NC(=O)[C@@H](NC(=O)[C@H](CCCCN)NC(=O)[C@H](CCC(=O)O)NC(=O)[C@H](CCCNC(=N)N)NC(=O)CNC(=O)[C@H](CCC(=O)O)NC(=O)[C@H](CC(C)C)NC(=O)[C@H](CCC(=O)O)NC(C)=O)C(C)C)[C@@H](C)CC)[C@@H](C)O)C(N)=O)C(=O)O)C(=O)O` [compound 54] (Ac-ELEGREKVRAAI[Aib][Aib]EG[Nle]STWS[Aib]RKK([AEEA-γGlu-γGlu-Palmitoyl])-NH2), 98%. Take `CCCCCCCCCCCCCCCC(=O)N[C@@H](CCC(=O)NCCCC[C@H](NC(=O)CC[C@H](NC(=O)CC[C@H](NC(=O)CC[C@H](NC(=O)COCCOCCNC(=O)COCCOCCNC(=O)COCCOCCNC(=O)COCCOCCNC(=O)[C@H](CCCCNC(C)=O)NC(=O)[C@H](C)NC(=O)[C@H](C)NC(=O)[C@](C)(CCCCN)NC(=O)[C@H](CO)NC(=O)[C@H](Cc1ccccc1)NC(=O)[C@@H](NC(=O)[C@H](CO)NC(=O)[C@H](CCCC)NC(=O)CNC(=O)[C@H](CCC(=O)O)NC(=O)C(C)(C)NC(=O)C(C)(C)NC(=O)[C@@H](NC(=O)[C@H](CCCCNC(C)=O)NC(=O)[C@H](C)NC(=O)[C@H](CCCNC(=N)N)NC(=O)[C@@H](NC(=O)[C@H](CCCCN)NC(=O)[C@H](CCC(=O)O)NC(=O)[C@H](CCCNC(=N)N)NC(=O)CNC(=O)[C@H](CCC(=O)O)NC(=O)[C@H](CC(C)C)NC(C)=O)C(C)C)[C@@H](C)CC)[C@@H](C)O)C(=O)O)C(=O)O)C(=O)O)C(N)=O)C(=O)O` [compound 139] (Ac-LEGREKVRAK(Ac)I[Aib][Aib]EG[Nle]STFS[αMeK]AAK(Ac)[AEEA][AEEA][AEEA][AEEA][γGlu][γGlu][γGlu]K([γGlu-Palmitoyl])-NH2): the EC50 stood at 0.3 nM and the maximal response (Emax) was determined as 92%. On the same counts, the results for `CCCCCCCCCCCCCCCCCC(=O)N[C@@H](CCC(=O)N[C@@H](CCC(=O)N[C@@H](CCC(=O)NCCOCCOCC(=O)NCCOCCOCC(=O)NCCOCCOCC(=O)NCCCC[C@H](NC(=O)[C@H](CCCCNC(C)=O)NC(=O)[C@H](CCCC[N+](C)(C)C)NC(=O)[C@H](CCCNC(=N)NC)NC(=O)C(C)(C)NC(=O)[C@H](CO)NC(=O)[C@H](Cc1c[nH]c2ccccc12)NC(=O)[C@@H](NC(=O)[C@H](CO)NC(=O)[C@H](CCCC)NC(=O)CNC(=O)[C@H](CCC(=O)O)NC(=O)C(C)(C)NC(=O)C(C)(C)NC(=O)[C@@H](NC(=O)[C@H](CCCCNC(C)=O)NC(=O)[C@H](C)NC(=O)[C@H](CCCNC(=N)N)NC(=O)[C@@H](NC(=O)[C@H](CCCCN)NC(=O)[C@H](CCC(=O)O)NC(=O)[C@H](CCCNC(=N)N)NC(=O)CNC(=O)[C@H](CCC(=O)O)NC(=O)[C@H](CC(C)C)NC(C)=O)C(C)C)[C@@H](C)CC)[C@@H](C)O)C(N)=O)C(=O)O)C(=O)O)C(=O)O` [compound 137] (Ac-LEGREKVRAK(Ac)I[Aib][Aib]EG[Nle]STWS[Aib][Arg(Me)][Lys(Me3)]K(Ac)K([AEEA-AEEA-AEEA-γGlu-γGlu-γGlu-Stearoyl])-NH2) are 0.21 nM and 92%.
